# From US20160002204A1 (Board of Regents, The University of Texas System, priority 2014, published 2016)
# pEC50, pIC50: −log10 of the molar value.
# What was measured:
# [1] = system: A549 cells; assay: A549 proliferation (viability) assay, Cell Titer Fluor, 72 hours; assay type: cell-based; settings: Homo sapiens
# In short: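 A549 cells in RPMI 1640 with 10% dialyzed FBS were seeded at 1000 cells/well, grown 24 h, then exposed to compound (0.5% DMSO final) for 72 h at 37 °C, 5% CO2. Viability was read by Cell Titer Fluor fluorescence; EC50 from four-parameter logistic fit.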
# [2] = target: T1, GLS1 (purified recombinant human GAC) (Homo sapiens, UniProt O94925); assay: GLS1 enzymatic activity assay (dual-coupled, Amplex UltraRed/resorufin); assay type: biochemical
# T1 sequence (O94925 55-598 isoform O94925-3 limits assumed): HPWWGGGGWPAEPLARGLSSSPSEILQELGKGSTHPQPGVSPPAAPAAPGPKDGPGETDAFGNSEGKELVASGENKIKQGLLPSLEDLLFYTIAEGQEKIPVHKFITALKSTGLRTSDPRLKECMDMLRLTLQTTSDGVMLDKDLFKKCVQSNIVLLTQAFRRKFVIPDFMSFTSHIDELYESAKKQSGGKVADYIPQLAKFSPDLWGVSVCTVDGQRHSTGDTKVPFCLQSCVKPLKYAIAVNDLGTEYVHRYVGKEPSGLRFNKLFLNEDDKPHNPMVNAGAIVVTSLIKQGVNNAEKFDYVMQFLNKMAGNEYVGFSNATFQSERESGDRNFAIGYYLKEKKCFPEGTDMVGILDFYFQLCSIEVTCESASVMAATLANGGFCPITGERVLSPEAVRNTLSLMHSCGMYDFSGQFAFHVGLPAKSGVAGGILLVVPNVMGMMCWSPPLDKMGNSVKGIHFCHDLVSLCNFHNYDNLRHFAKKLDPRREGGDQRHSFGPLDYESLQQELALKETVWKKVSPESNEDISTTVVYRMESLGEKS
# In short: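 Recombinant human GAC (2 nM) preincubated with 50 mM potassium phosphate, then inhibitor (10 min each, RT); 1 mM glutamine, pH 7.4 Hepes buffer, 1% DMSO. Glutamate coupled via glutamate oxidase/HRP to resorufin (Ex 530/Em 590), kinetic or 20-min endpoint; IC50 by four-parameter logistic fit.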
SMILES,pEC50 [1],pIC50 [2]
"C[C@H](NC(=O)Nc1ccn(CCCCc2ccc(NC(=O)Cc3ccccc3)nn2)c(=O)n1)c1ccccc1 [Example 90, N-(6-{4-[2-oxo-4-({[(1S)-1-phenylethyl]carbamoyl}amino)-1,2-dihydropyrimidin-1-yl]butyl}pyridazin-3-yl)-2-phenylacetamide]",< 5.30,6.30 to 7.00
"O=C(NCC1CCCCC1)c1ccn(CCCCn2cc(C(=O)NCc3cccc(OC(F)(F)F)c3)nn2)c(=O)c1 [Example 63, N-(cyclohexylmethyl)-2-oxo-1-{4-[4-({[3-(trifluoro-methoxy)phenyl]methyl}carbamoyl)-1H-1,2,3-triazol-1-yl]butyl}-1,2-dihydropyridine-4-carboxamide]",6.30 to 7.00,> 7.00
"O=C(Cc1ccccc1)Nc1ccn(CCCCc2ccc(NC(=O)Cc3cccc(OC(F)(F)F)c3)nn2)c(=O)c1 [Example 14, N-(2-oxo-1-(4-(6-(2-(3-(trifluoromethoxy)phenyl)acetamido)pyridazin-3-yl)butyl)-1,2-dihydropyridin-4-yl)-2-phenylacetamide]",> 7.00,> 7.00
"Cc1ccc(CNC(=O)c2cn(CCCCn3ccc(NC(=O)CC4CCCCC4)cc3=O)nn2)cn1 [Example 145, 1-{4-[4-(2-cyclohexylacetamido)-2-oxo-1,2-dihydropyridin-1-yl]butyl}-N-[(6-methylpyridin-3-yl)methyl]-1H-1,2,3-triazole-4-carboxamide]",6.30 to 7.00,> 7.00
"O=C(CC1CCCCC1)Nc1ccn(CCCCn2cc(C(=O)NCc3cccc(C(F)(F)F)c3)nn2)c(=O)c1 [Example 141, 1-{4-[4-(2-cyclohexylacetamido)-2-oxo-1,2-dihydropyridin-1-yl]butyl}-N-{[3-(trifluoromethyl)phenyl]methyl}-1H-1,2,3-triazole-4-carboxamide]",> 7.00,> 7.00
"CNC(=O)Nc1nnc(CCCCn2ccc(NC(=O)CC3CCCC3)c(F)c2=O)s1 [Example 132, 2-cyclopentyl-N-(3-fluoro-1-(4-(5-(3-methylureido)-1,3,4-thiadiazol-2-yl)butyl)-2-oxo-1,2-dihydropyridin-4-yl)acetamide]",< 5.30,6.30 to 7.00
"O=C(Cc1ccccc1)Nc1ccn(CCCCn2cc(C(=O)NCc3ccccc3)nn2)c(=O)c1 [Example 2, N-benzyl-1-(4-(2-oxo-4-(2-phenylacetamido)pyridin-1(2H)-yl)butyl)-1H-1,2,3-triazole-4-carboxamide]",5.30 to 6.30,6.30 to 7.00
"CS(=O)(=O)c1cccc(CNC(=O)c2cn(CCCCn3ccc(NC(=O)Cc4cccc(OC(F)(F)F)c4)cc3=O)nn2)c1 [Example 53, N-[(3-methanesulfonylphenyl)methyl]-1-[4-(2-oxo-4-{2-[3-(trifluoromethoxy)phenyl]acetamido}-1,2-dihydropyridin-1-yl)butyl]-1H-1,2,3-triazole-4-carboxamide]",5.30 to 6.30,> 7.00
"O=C(Cc1cccc(OC(F)(F)F)c1)Nc1ccn(CCCCc2nnc(NC(=O)Cc3cccnc3)s2)c(=O)n1 [Example 81, N-[2-oxo-1-(4-{5-[2-(pyridin-3-yl)acetamido]-1,3,4-thiadiazol-2-yl]butyl)-1,2-dihydropyrimidin-4-yl]-2-[3-(trifluoromethoxy)phenyl]acetamide]",5.30 to 6.30,> 7.00

# More lines, now with the values ahead:
pEC50 [1],pIC50 [2],SMILES
> 7.00,> 7.00,"O=C(CC1CCCC1)Nc1ccn(CCC(F)Cn2cc(C(=O)NCc3cc(Cl)ccc3F)nn2)c(=O)c1F (centres unmarked) [Example 395, N-[(5-chloro-2-fluorophenyl)methyl]-1-{4-[4-(2-cyclopentylacetamido)-3-fluoro-2-oxo-1,2-dihydropyridin-1-yl]-2-fluorobutyl}-1H-1,2,3-triazole-4-carboxamide]"
5.30 to 6.30,> 7.00,"O=C(CC1CCS(=O)(=O)CC1)Nc1ccn(CCCCn2cc(C(=O)NCc3cccc(OC(F)(F)F)c3)nn2)c(=O)c1 [Example 179, 1-(4-{4-[2-(1,1-dioxo-1$l^6-thian-4-yl)acetamido]-2-oxo-1,2-dihydropyridin-1-yl}butyl)-N-{[3-(trifluoromethoxy)phenyl]methyl}-1H-1,2,3-triazole-4-carboxamide]"
5.30 to 6.30,6.30 to 7.00,"O=C(CC1CCNCC1)Nc1ccn(CCC(F)Cn2cc(C(=O)NCc3cccc(OC(F)(F)F)c3)nn2)c(=O)c1F (centres unmarked) [Example 299, 1-(2-fluoro-4-{3-fluoro-2-oxo-4-[2-(piperidin-4-yl)acetamido]-1,2-dihydropyridin-1-yl}butyl)-N-{[3-(trifluoromethoxy)phenyl]methyl}-1H-1,2,3-triazole-4-carboxamide]"
5.30 to 6.30,6.30 to 7.00,"O=C(Cc1ccccc1)Nc1ccn(CC(F)CCn2cc(C(=O)NCc3ncccc3F)nn2)c(=O)c1 (centres unmarked) [Example 149, 1-{3-fluoro-4-[2-oxo-4-(2-phenylacetamido)-1,2-dihydropyridin-1-yl]butyl}-N-[(3-fluoropyridin-2-yl)methyl]-1H-1,2,3-triazole-4-carboxamide]"
6.30 to 7.00,> 7.00,"O=C(Nc1ccn(CCCCc2nnc(C(=O)NCc3cc(C(F)(F)F)ccn3)s2)c(=O)c1F)C(=O)N1CCCCC1 [Example 466, 5-(4-{3-fluoro-2-oxo-4-[2-oxo-2-(piperidin-1-yl)acetamido]-1,2-dihydropyridin-1-yl)butyl)-N-{[4-(trifluoromethyl)pyridin-2-yl]methyl}-1,3,4-thiadiazole-2-carboxamide]"
5.30 to 6.30,6.30 to 7.00,"CNC(=O)c1cn(CC(F)CCn2ccc(NC(=O)CN3CCN(C(=O)OC(C)(C)C)CC3)cc2=O)nn1 (centres unmarked) [Example 403, tert-butyl 4-{[(1-{3-fluoro-4-[4-(methylcarbamoyl)-1H-1,2,3-triazol-1-yl]butyl}-2-oxo-1,2-dihydropyridin-4-yl)carbamoyl]methyl}piperazine-1-carboxylate]"
6.30 to 7.00,> 7.00,"O=C(CN1CCCC1)Nc1ccn(CCC(F)Cn2cc(C(=O)NCc3cccc(OC(F)(F)F)c3)nn2)c(=O)c1F (centres unmarked) [Example 293, 1-(2-fluoro-4-{3-fluoro-2-oxo-4-[2-(pyrrolidin-1-yl)acetamido]-1,2-dihydropyridin-1-yl}butyl)-N-{[3-(trifluoromethoxy)phenyl]methyl}-1H-1,2,3-triazole-4-carboxamide]"
> 7.00,> 7.00,"O=C(Nc1ccn(CCC(F)Cn2cc(C(=O)NCc3cccc(OC(F)(F)F)c3)nn2)c(=O)c1F)C(=O)c1ccccc1 (centres unmarked) [Example 315, 1-{2-fluoro-4-[3-fluoro-2-oxo-4-(2-oxo-2-phenylacetamido)-1,2-dihydropyridin-1-yl]butyl}-N-{[3-(trifluoromethoxy)phenyl]methyl}-1H-1,2,3-triazole-4-carboxamide]"
> 7.00,> 7.00,"CCOC(=O)N1CCC(CC(=O)Nc2ccn(CCC(F)Cn3cc(C(=O)NCc4cncc(C(F)(F)F)c4)nn3)c(=O)c2F)CC1 (centres unmarked) [Example 363, ethyl 4-{[(3-fluoro-1-{3-fluoro-4-[4-({[5-(trifluoromethyl)pyridin-3-yl]methyl}carbamoyl)-1H-1,2,3-triazol-1-yl]butyl}-2-oxo-1,2-dihydropyridin-4-yl)carbamoyl]methyl}piperidine-1-carboxylate]"
6.30 to 7.00,> 7.00,"CC(C)(C)OC(=O)N[C@H]1CCC[C@H](C(=O)Nc2ccn(CCCCn3cc(C(=O)NCc4cccc(OC(F)(F)F)c4)nn3)c(=O)c2)C1 [Example 211, tert-butyl N-[(1S,3S)-3-[(2-oxo-1-{4-[4-({[3-(trifluoro-methoxy)phenyl]methyl}carbamoyl)-1H-1,2,3-triazol-1-yl]butyl}-1,2-dihydropyridin-4-yl)carbamoyl]cyclohexyl]carbamate]"
> 7.00,> 7.00,"O=C(NCc1cccc(OC(F)(F)F)c1)c1cn(CC(F)CCn2ccc(NC(=O)[C@@H](O)c3ccccc3)c(F)c2=O)nn1 (stereo partly drawn) [Example 286, 1-(2-fluoro-4-{3-fluoro-4-[(2S)-2-hydroxy-2-phenylacetamido]-2-oxo-1,2-dihydropyridin-1-yl}butyl)-N-{[3-(trifluoromethoxy)phenyl]methyl}-1H-1,2,3-triazole-4-carboxamide]"
> 7.00,> 7.00,"O=C(CC1CCCCC1)Nc1ccn(CCC(F)Cn2cc(C(=O)NCc3cncc(C(F)(F)F)c3)nn2)c(=O)c1F (centres unmarked) [Example 259, 1-{4-[4-(2-cyclohexylacetamido)-3-fluoro-2-oxo-1,2-dihydropyridin-1-yl]-2-fluorobutyl}-N-{[5-(trifluoromethyl)pyridin-3-yl]methyl}-1H-1,2,3-triazole-4-carboxamide]"
6.30 to 7.00,> 7.00,"COC1CCCN(C(=O)C(=O)Nc2ccn(CCC(F)Cn3cc(C(=O)NCc4cc(OC(F)(F)F)ccc4F)nn3)c(=O)c2F)C1 (centres unmarked) [Example 433, 1-(2-fluoro-4-{3-fluoro-4-[2-(3-methoxypiperidin-1-yl)-2-oxoacetamido]-2-oxo-1,2-dihydropyridin-1-yl}butyl)-N-{[2-fluoro-5-(trifluoromethoxy)phenyl]methyl}-1H-1,2,3-triazole-4-carboxamide]"
